{"source": "patent US11492361B2", "about": "“Compounds useful in HIV therapy” (GlaxoSmithKline Intellectual Property Development Limited, priority 2018, dated 2022)", "key": {"[1]": {"test_system": "p100/p52", "conditions": "background statement, primary cells; cited from earlier work"}, "[2]": {"test_system": "Jurkat HIV-luciferase clones", "conditions": "background statement; cited from earlier work"}, "[3]": {"test_system": "cell-associated HIV RNA (HIV gag RNA) in CD4+ T cells", "conditions": "background statement, primary cells / resting CD4+ T cells; cited from earlier work"}, "[4]": {"test_system": "Jurkat HIV-luciferase clones", "assay": "Jurkat latency reversal assay", "assay_type": "cell-based", "conditions": "Homo sapiens, Jurkat", "how_it_was_run": "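Three pooled Jurkat HIV-luciferase clones (C16, I15, N6; 5,000 cells/well, maintained with 500 nM EFV) exposed to 3-fold, 14-point titrations (10 μM to 2.1 pM, 0.5% DMSO) in duplicate for 48 h at 37 °C. Luciferase luminescence read; EC50 and maximal % activation versus vehicle from four-parameter logistic fit.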"}, "[5]": {"test_system": "NFKB2", "assay": "NFkB2 gene induction", "assay_type": "cell-based, human", "conditions": "Homo sapiens, CD4+ T, 24 h, read-out: NFkB2 gene induction EC50 (nM)", "protocol": "5×10^5 normal donor CD4 T cells were treated for 24h with serial dilutions of compounds starting at 1.0 μM at 6 fold, 7 places. Total RNA was isolated using the RNEasy Mini kit (Qiagen) per the manufacturer's instructions. The following TaqMan primer probe sets were sourced from Applied Biosystems: Hs00174517_m1 (NFKB2) and Hs02800695 (HPRT1). TaqMan-based real-time PCR (Fast Virus 1-Step Master Mix, Applied Biosystems) was used to amplify host genes of interest. Gene expression was normalized to HPRT1 and comparative threshold cycle (CT) method (ΔΔCT) was used for relative fold change of gene expression as compared to untreated cells. The data was analyzed by QuantStudio3 Real-Time PCR System."}, "[6]": {"test_system": "p100/p52", "assay": "p100/p52 Western blot (WB) assay", "assay_type": "cell-based, human", "conditions": "Homo sapiens, PBMC, 24 h, read-out: p100/p52 Western Blot (WB) EC50 (nM)", "protocol": "Cell cultures were set up to evaluate several SMACm compounds. Frozen PBMC cells from healthy donors were thawed and plated in 2 ml deepwell plates at 2×10^6 cells/ml. Serial dilutions of each compound was carried out as a 7 fold 1:6 dilution with the starting final dose of 1000 nM. Cells were then combined with compound and place at 37° for 24 hrs. The following day cells were pelleted and placed at −80 until lysis.\nIn preparation for cell lysis, the frozen cell pellets and an aliquot of NP40 Cell Lysis Buffer (Invitrogen, Part #FNN0021), as well as an aliquot of 10× Protease Inhibitor Cocktail (Sigma, Part #P-2714) are thawed on ice. Once thawed, the complete lysis buffer is prepared by adding 10% final volume PI cocktail to the NP40 buffer and then adding in sufficient volume of 0.1 M PMSF (Sigma, Part #93482) and 1 M DTT (Sigma, Part #43816) to create a final concentration of 1 mM each in the complete lysis buffer. Cell lysis is then carried out by resuspending each cell pellet in 30 μL per 10^6 cells then incubating on ice for 30 minutes with vigorous vortexing every 10 minutes. The lysed cells are then centrifuged at 13K RPM for 10 minutes at 4° C. in a refrigerated microcentrifuge. The supernatants (lysates) are then transferred into new microcentrifuge tubes and either stored at −80° or utilized immediately for protein concentration and Western blot analysis.\nProtein concentration for each lysate is determined using a detergent compatible Bradford assay (Pierce, Part #23246) following the manufacturer's microplate instructions.\nCapillary Western analysis were performed using the ProteinSimple Jess System. A total of 1 ug of cell lysate was prepared according to the provided protocol supplied by ProteinSimple. The primary antibody for p100/p52 (Cell, Signaling #3017) is diluted 1:10 for use in the Jess system. The 12-230 kDa Jess Seperation Module capillary cartridges Separation Module (SM-W004) is used in conjunction with the Anti-Rabbit Secondary NIR conjugate (043-819). The Separation module includes prefilled plates that the samples, primary and secondary antibodies, as well as protein normalization reagent and diluents are loaded onto to perform separation and detection. Once the assay has run, the data is then analyzed utilizing the Compass software provided by ProteinSimple.\nAlternatively to capillary electrophoresis, traditional immunoblot assays were carried out, 10 μg of cell lysate was loaded per well into 4-20% Tris-Glycine SDS-PAGE gels. Protein from the SDS-PAGE gels were transferred to Turbo Midi PVDF Transfer Packs (BioRad) using the “Mixed MW” protocol for one Midi Format Gel (constant 2.5 A up to 25V, for 7 minutes) of the Trans-Blot Turbo Transfer System (Bio-Rad) with premade Trans-Blot per the manufacturer's instructions. After transfer, PVDF membranes were blocked in 5% bovine serum albumin (BSA) in 1×TBS (BioRad) with 0.1% Tween-20 for 1 hour at room temperature with gentle rocking. Primary antibodies were added and incubated overnight at 4° C. (anti-p100/p52, Cell Signaling Technology #3017, 1:1000; anti-Actin-HRP conjugate, Abcam #49900, 1:30,000). Following primary staining, the membrane washed three times with 1× Tris Buffered Saline (TBS)+0.1% TWEEN® 20 for 10 minutes each wash. After washing, the membrane was incubated in 5% BSA in 1×TBS+0.1% TWEEN® 20 with the appropriate secondary antibody for 2 hours at room temperature. Following secondary stain the membrane was washed twice for 10 minutes with 1×TBS+0.1% TWEEN® 20 followed by a 10-minute wash with 1×TBS. The membrane was then patted dry with filter paper and an image was captured of the undeveloped membrane on the ChemiDoc MP Imaging System using Image Lab software (BioRad). Sufficient ECL reagent (GE Healthcare) was used to cover the membrane and a series of images were taken starting with 0.001 second and doubling to tripling the exposure time until the luminescence from the developed membrane saturated the image. […]"}}, "note": "Counter-ions that a name gives are not always drawn. Like-named read-outs stand apart in the source and are kept apart here.", "data": [{"molecule": "CC[C@H](NC(=O)[C@H](C)NC)C(=O)N1C[C@@H](O)C[C@H]1Cc1c(-c2[nH]c3cc(F)ccc3c2C[C@@H]2C[C@H](O)CN2C(=O)[C@H](CC)NC(=O)[C@H](C)NC)[nH]c2cc(F)ccc12", "note": "[Birinapant TL32711]", "values": [{"measurement": "p100-p52 conversion", "setting": "[1]", "result": "not potent"}, {"measurement": "potency in cell line assays / Jurkat (HIV latency reversal)", "setting": "[2]", "result": "not potent"}, {"measurement": "HIV caRNA induction", "setting": "[3]", "result": "not potent"}]}, {"molecule": "CN[C@@H](C)C(=O)N[C@H]1CCS[C@H]2CC(C)(C)[C@@H](C(=O)N[C@H]3c4ccccc4C[C@H]3OCC#CC#CCO[C@@H]3Cc4ccccc4[C@@H]3NC(=O)[C@H]3N4C(=O)[C@@H](NC(=O)[C@H](C)NC)CCS[C@H]4CC3(C)C)N2C1=O", "note": "[compound 13, (4S,4′S,7S,7′S,9aS,9a′S)-N,N′-((1S,1′S,2R,2′R)-(hexa-2,4-diyne-1,6-diylbis(oxy))bis(2,3-dihydro-1H-indene-2,1-diyl))bis(8,8-dimethyl-4-((S)-2-(methylamino)propanamido)-5-oxooctahydropyrrolo[2,1-b][1,3]thiazepine-7-carboxamide) dihydrochloride]", "values": [{"measurement": "EC50", "setting": "[4]; 48 h", "result": 9.3, "unit": "nM"}, {"measurement": "EC50", "setting": "[4]; Table 4 summary, read-out: Jurkat EC50", "result": 9.3, "unit": "nM"}, {"measurement": "EC50", "setting": "[5]", "result": 73, "unit": "nM"}, {"measurement": "EC50", "setting": "[6]", "result": 12.6, "unit": "nM"}]}]}
